Laboratory results reported in patent US4626525A, “Antibiotics, preparation and use of and intermediates therefor” (Bayer Aktiengesellschaft, priority 1983, dated 1986).
Starred links: 1 amine or outer side, 2 acyl side, 3 side chain; linkers in the order of their positions; H or OH if unused. Non-standard residues stand in square brackets, D forms with d. Residues, ends and D or L forms follow the SMILES beside them. ξ: configuration not given here. X1 = Cn1c(=NC(N)=O)ccn(C2SC(C(O)C(N[*:1])C(=O)[*:2])C(O)C2O)c1=O; Orn(N5-OH,N5-Ac) = CC(=O)N(O)CCC[C@H](N)C(=O)O; ξT = CC(O)C(N)C(=O)O; ξA = CC(N)C(=O)O

Tests used:
Assay in all cases: Hole test, inhibiting areola diameter, DST agar
Type in all cases: cell-based
[1] = tested on: E. coli T 7; design: unit not given here; settings: medium DST agar
From the text: (§1) Activity against the germs listed below is found in vitro, on the basis of the diameter of the inhibiting areola.

[2] = tested on: E. coli 14; design: unit not given here; settings: medium DST agar
From the text: as §1

[3] = tested on: Prot. 1017; settings: 1000 μg/ml, medium DST agar
From the text: as §1

[4] = tested on: Staph. 133; settings: 1000 μg/ml, medium DST agar
From the text: as §1

Structure (SMILES) | Inhibiting areola diameter E. coli T 7 ([1]; 10 μg/ml) | Inhibiting areola diameter E. coli T 7 ([1]; 100 μg/ml) | Inhibiting areola diameter E. coli 14 ([2]; 10 μg/ml) | Inhibiting areola diameter E. coli 14 ([2]; 100 μg/ml) | Inhibiting areola diameter E. coli T 7 ([1]; 1000 μg/ml) | Inhibiting areola diameter E. coli 14 ([2]; 1000 μg/ml) | Inhibiting areola diameter Prot. 1017 [3] | Inhibiting areola diameter Staph. 133 [4]
CC(=O)N(O)CCC[C@H](NC(=O)[C@H](CCCN(O)C(C)=O)NC(=O)[C@@H](N)CCCN(O)C(C)=O)C(=O)NC(C)C(=O)NC(C(=O)O)C(O)C1SC(n2ccc(=NC(N)=O)n(C)c2=O)C(O)C1O (some centres unmarked) [Compound 9] (H-[Orn(N5-OH,N5-Ac)][Orn(N5-OH,N5-Ac)][Orn(N5-OH,N5-Ac)][ξA][X1]-OH) | 28 | 34 | 30 | 34 |  |  |  | 
CC(=O)N(O)CCC[C@H](N)C(=O)NC(C(=O)O)C(O)C1SC(n2ccc(=NC(N)=O)n(C)c2=O)C(O)C1O (some centres unmarked) [Compound 11] | 13 | 18 | 18 | 13 |  |  |  | 
CC(=O)N(O)CCC[C@H](NC(=O)[C@H](CCCN(O)C(C)=O)NC(=O)[C@@H](N)CCCN(O)C(C)=O)C(=O)NC(C(=O)O)C(O)C1SC(n2ccc(=NC(N)=O)n(C)c2=O)C(O)C1O (some centres unmarked) [Compound 13] |  |  |  |  | 19 | 20 | 20 | 
CC(=O)N(O)CCC[C@H](NC(=O)[C@H](CCCN(O)C(C)=O)NC(=O)[C@@H](N)CCCN(O)C(C)=O)C(=O)NC(C(=O)NC(C(=O)O)C(O)C1SC(n2ccc(=NC(N)=O)n(C)c2=O)C(O)C1O)C(C)O (some centres unmarked) [Compound 20] (H-[Orn(N5-OH,N5-Ac)][Orn(N5-OH,N5-Ac)][Orn(N5-OH,N5-Ac)][ξT][X1]-OH) |  | 14 |  | 13 | 15 | 14 | 17 | 25
CC(=O)N(O)CCC[C@H](NC(=O)[C@H](CCCN(O)C(C)=O)NC(=O)[C@@H](N)CCCN(O)C(C)=O)C(=O)NC(C(=O)O)C(O)C1SC(n2ccc(=O)n(C)c2=O)C(O)C1O (some centres unmarked) [Compound 24] |  | 18 |  |  |  | 18 | 18 | 
